PubChem BioAssay (NCI)
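Interpolation was linear, between the two tested concentrations surrounding the appropriate level; five concentrations were tested over 48 hours in 96-well plates. GI50: concentration for 50% inhibition of growth. Definition used: TGI = concentration required for complete inhibition of growth.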

Assays:
Test in all cases: NCI-60 cell line screen, 48 h
T-47D breast = test system: T-47D breast
ACHN renal = test system: ACHN renal
MCF7 breast = test system: MCF7 breast
MOLT-4 leukemia = test system: MOLT-4 leukemia
BT-549 breast = test system: BT-549 breast
MDA-MB-435 = test system: MDA-MB-435
UACC-62 melanoma = test system: UACC-62 melanoma
DU-145 prostate = test system: DU-145 prostate
HL-60(TB) leukemia = test system: HL-60(TB) leukemia
OVCAR-3 ovarian = test system: OVCAR-3 ovarian
RXF 393 renal = test system: RXF 393 renal
HOP-62 NSCLC = test system: HOP-62 NSCLC
SK-MEL-28 melanoma = test system: SK-MEL-28 melanoma
OVCAR-8 ovarian = test system: OVCAR-8 ovarian
NCI-H522 lung = test system: NCI-H522 lung
SF-295 CNS = test system: SF-295 CNS
IGROV1 ovarian = test system: IGROV1 ovarian
NCI-H460 lung = test system: NCI-H460 lung
M14 melanoma = test system: M14 melanoma
SNB-19 CNS = test system: SNB-19 CNS
MDA-MB-231 breast = test system: MDA-MB-231 breast
SK-OV-3 ovarian = test system: SK-OV-3 ovarian
TK-10 renal = test system: TK-10 renal
CCRF-CEM leukemia = test system: CCRF-CEM leukemia
OVCAR-4 ovarian = test system: OVCAR-4 ovarian
SF-539 CNS = test system: SF-539 CNS
OVCAR-5 ovarian = test system: OVCAR-5 ovarian
SN12C renal = test system: SN12C renal
SR leukemia = test system: SR leukemia
PC-3 prostate = test system: PC-3 prostate
HOP-92 NSCLC = test system: HOP-92 NSCLC
SNB-75 CNS = test system: SNB-75 CNS
HCT-15 colon = test system: HCT-15 colon
NCI-H226 lung = test system: NCI-H226 lung
SK-MEL-5 melanoma = test system: SK-MEL-5 melanoma
NCI-H23 lung = test system: NCI-H23 lung
786-0 renal = test system: 786-0 renal
SW-620 colon = test system: SW-620 colon
UACC-257 melanoma = test system: UACC-257 melanoma
RPMI-8226 leukemia = test system: RPMI-8226 leukemia
UO-31 renal = test system: UO-31 renal
HT29 colon = test system: HT29 colon
SF-268 CNS = test system: SF-268 CNS
SK-MEL-2 melanoma = test system: SK-MEL-2 melanoma
MALME-3M melanoma = test system: MALME-3M melanoma
EKVX NSCLC = test system: EKVX NSCLC
K-562 leukemia = test system: K-562 leukemia
KM12 colon = test system: KM12 colon
A498 renal = test system: A498 renal
HCC-2998 colon = test system: HCC-2998 colon
CAKI-1 renal = test system: CAKI-1 renal

`COc1cc2nc(N3CCCC3)nc(NCCc3ccccc3)c2cc1OC` gave a GI50 (T-47D breast) of 1940 nM, a TGI (T-47D breast) of 4410 nM and a GI50 (ACHN renal) of 1670 nM. It also gave a TGI (ACHN renal) of 3040 nM, a GI50 (MCF7 breast) of 1170 nM and a TGI (MCF7 breast) of 2850 nM. The GI50 (MOLT-4 leukemia) was 2430 nM, the TGI (MOLT-4 leukemia) was 7690 nM and the GI50 (BT-549 breast) was 1750 nM. For the same compound, the TGI (BT-549 breast) was 3510 nM, the GI50 (MDA-MB-435) was 1740 nM and the TGI (MDA-MB-435) was 3250 nM. The GI50 (UACC-62 melanoma) was 1650 nM, the TGI (UACC-62 melanoma) was 3060 nM and the GI50 (DU-145 prostate) was 2110 nM. The TGI (DU-145 prostate) was 5110 nM, the GI50 (HL-60(TB) leukemia) was 1850 nM and the TGI (HL-60(TB) leukemia) was 4250 nM. The GI50 (OVCAR-3 ovarian) was 1960 nM, the TGI (OVCAR-3 ovarian) was 3680 nM and the GI50 (RXF 393 renal) was 1280 nM. It also gave a TGI (RXF 393 renal) of 2760 nM, a GI50 (HOP-62 NSCLC) of 1930 nM and a TGI (HOP-62 NSCLC) of 3860 nM. For the same compound, the GI50 (SK-MEL-28 melanoma) was 1660 nM, the TGI (SK-MEL-28 melanoma) was 3030 nM and the GI50 (OVCAR-8 ovarian) was 2140 nM. The TGI (OVCAR-8 ovarian) was 6050 nM, the GI50 (NCI-H522 lung) was 1990 nM and the TGI (NCI-H522 lung) was 4540 nM. It also gave a GI50 (SF-295 CNS) of 1800 nM, a TGI (SF-295 CNS) of 3430 nM and a GI50 (IGROV1 ovarian) of 1510 nM. The TGI (IGROV1 ovarian) was 2950 nM, the GI50 (NCI-H460 lung) was 1860 nM and the TGI (NCI-H460 lung) was 3540 nM. It also gave a GI50 (M14 melanoma) of 1800 nM, a TGI (M14 melanoma) of 3690 nM and a GI50 (SNB-19 CNS) of 1740 nM. The TGI (SNB-19 CNS) was 3300 nM, the GI50 (MDA-MB-231 breast) was 1790 nM and the TGI (MDA-MB-231 breast) was 3350 nM. It also gave a GI50 (SK-OV-3 ovarian) of 1930 nM, a TGI (SK-OV-3 ovarian) of 3560 nM and a GI50 (TK-10 renal) of 1970 nM. For the same compound, the TGI (TK-10 renal) was 3560 nM, the GI50 (CCRF-CEM leukemia) was 1440 nM and the TGI (CCRF-CEM leukemia) was 10600 nM. For the same compound, the GI50 (OVCAR-4 ovarian) was 1760 nM, the TGI (OVCAR-4 ovarian) was 3710 nM and the GI50 (SF-539 CNS) was 1780 nM. For the same compound, the TGI (SF-539 CNS) was 3210 nM, the GI50 (OVCAR-5 ovarian) was 1720 nM and the TGI (OVCAR-5 ovarian) was 3210 nM. The GI50 (SN12C renal) was 1870 nM, the TGI (SN12C renal) was 3790 nM and the GI50 (SR leukemia) was 653 nM. For the same compound, the TGI (SR leukemia) was 5740 nM, the GI50 (PC-3 prostate) was 1680 nM and the TGI (PC-3 prostate) was 3910 nM. For the same compound, the GI50 (HOP-92 NSCLC) was 1480 nM, the TGI (HOP-92 NSCLC) was 3160 nM and the GI50 (SNB-75 CNS) was 1520 nM. The TGI (SNB-75 CNS) was 2890 nM, the GI50 (HCT-15 colon) was 1670 nM and the TGI (HCT-15 colon) was 3260 nM. For the same compound, the GI50 (NCI-H226 lung) was 11400 nM, the TGI (NCI-H226 lung) was 34000 nM and the GI50 (SK-MEL-5 melanoma) was 1700 nM. For the same compound, the TGI (SK-MEL-5 melanoma) was 3150 nM, the GI50 (NCI-H23 lung) was 1800 nM and the TGI (NCI-H23 lung) was 3640 nM. It also gave a GI50 (786-0 renal) of 1710 nM, a TGI (786-0 renal) of 3210 nM and a GI50 (SW-620 colon) of 1380 nM. For the same compound, the TGI (SW-620 colon) was 3070 nM, the GI50 (UACC-257 melanoma) was 1890 nM and the TGI (UACC-257 melanoma) was 3850 nM. It also gave a GI50 (RPMI-8226 leukemia) of 2180 nM, a TGI (RPMI-8226 leukemia) of 5750 nM and a GI50 (UO-31 renal) of 1290 nM. The TGI (UO-31 renal) was 2690 nM, the GI50 (HT29 colon) was 1810 nM and the TGI (HT29 colon) was 4190 nM. The GI50 (SF-268 CNS) was 1970 nM, the TGI (SF-268 CNS) was 3950 nM and the GI50 (SK-MEL-2 melanoma) was 2020 nM. The TGI (SK-MEL-2 melanoma) was 3910 nM, the GI50 (MALME-3M melanoma) was 1900 nM and the TGI (MALME-3M melanoma) was 3380 nM. For the same compound, the GI50 (EKVX NSCLC) was 1850 nM, the TGI (EKVX NSCLC) was 3900 nM and the GI50 (K-562 leukemia) was 1810 nM. For the same compound, the TGI (K-562 leukemia) was > 100000 nM, the GI50 (KM12 colon) was 1960 nM and the TGI (KM12 colon) was 3740 nM. For the same compound, the GI50 (A498 renal) was 1640 nM, the TGI (A498 renal) was 3500 nM and the GI50 (HCC-2998 colon) was 1960 nM. The TGI (HCC-2998 colon) was 3640 nM, the GI50 (CAKI-1 renal) was 1660 nM and the TGI (CAKI-1 renal) was 3190 nM.
